{"source": "patent US6914045B2", "about": "“Glycopeptide antibiotics” (Wyeth Holdings Corporation, priority 2001, dated 2005)", "key": {"[1]": {"test_system": "Staphylococcus aureus-SMITH (GC 4543)", "assay": "acute lethal infection in mice", "assay_type": "in vivo", "conditions": "acute lethal infection, female CD-1 mice, intraperitoneal challenge, intravenous 30 min. after infection, 7 day survival", "summary_of_the_method": "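Female CD-1 mice (20+/−2 gm) were infected intraperitoneally with enough bacteria, suspended in trypticase soy broth or hog gastric mucin, to kill untreated controls within 24-48 hr. Compound in saline or 5% dextrose was given intravenously 30 min post-infection, five mice per dose. ED50 came from pooled 7 day survival of 3 tests.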"}, "[2]": {"assay": "clinical pathology (serum clinical chemistry) in mice", "assay_type": "in vivo", "conditions": "CD-1 mice, 20 mg/kg intravenously daily for 9 days, sera day 10", "method": "20-day-old CD-1 mice were divided into a vehicle control group (5 mice) and a treatment group (5 mice). Samples of glycopeptide antibiotics were administered at 20 mg/kg intravenously daily for 9 days."}, "Escherichia coli": {"test_system": "Escherichia coli", "assay": "in vitro antibacterial evaluation, MIC by broth dilution", "assay_type": "cell-based", "conditions": "18 hours at 35° C."}, "[3]": {"assay": "anatomic pathology (histopathology of heart and kidney) in mice", "assay_type": "in vivo", "conditions": "CD-1 mice, 20 mg/kg intravenously daily for 9 days, necropsy day 10, microscopic histopathology", "method": "Samples of tissues from necropsied mice were formalin-fixed, paraffin-embedded, sectioned, stained with hematoxylin and eosin, and examined microscopically. Histopathologic findings were recorded. These findings were subjectively graded on a scale corresponding to slight, mild, moderate, marked and severe as compared to untreated controls."}, "Staphylococcus sp.": {"test_system": "Staphylococcus sp.", "assay": "in vitro antibacterial evaluation, MIC by broth dilution", "assay_type": "cell-based", "conditions": "broth dilution, 18 hours at 35° C.", "summary_of_the_method": "(§1)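 Following National Committee for Clinical Laboratory Standards recommendations (M7-A2), susceptibility was measured by dilution in Muller-Hinton II […]. Bacteria were seeded at 5×10^5 CFU/mL against compound concentrations from 64 down to 0.06 μg/mL.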"}, "Streptococcus sp.": {"test_system": "Streptococcus sp.", "assay": "in vitro antibacterial evaluation, MIC by broth dilution", "assay_type": "cell-based", "conditions": "broth dilution, 18 hours at 35° C.", "summary_of_the_method": "as §1"}, "Enterococcus sp.": {"test_system": "Enterococcus sp.", "assay": "in vitro antibacterial evaluation, MIC by broth dilution", "assay_type": "cell-based", "conditions": "broth dilution, 18 hours at 35° C.", "summary_of_the_method": "as §1"}}}
{"smiles": "COc1ccc2cc(COC3C(CO)OC(OC4C(CO)OC(Oc5ccc(CC6NC(=O)C(C(C)c7ccccc7)NC(=O)CNC(=O)C(CO)NC(=O)C(CC7CNC(=N)N7C7OC(CO)C(O)C(O)C7O)NC(=O)C(CC7CNC(=N)N7)NC6=O)cc5)C(O)C4O)C(O)C3O)ccc2c1", "note": "(stereo not drawn) [Example 245a, Cyclo[3-(2-iminoimidazolidin-4-yl)alanyl-3-(3-hexopyranosyl-2-iminoimidazolidin-4-yl)-alanylserylglycyl-β-methylphenylalanyl-O-[4-O-[4-O-[(6-methoxy-2-naphthyl)methyl]-hexopyranosyl]hexopyranosyl]tyrosyl]]", "values": [{"measurement": "median effective dose (ED50), Staphylococcus aureus-SMITH (GC 4543)", "setting": "[1]", "value": 1, "unit": "mg/kg"}, {"measurement": "Clinical Chemistry (Day 10) % of Control, BUN", "setting": "[2]", "value": "+212%"}, {"measurement": "Clinical Chemistry (Day 10) % of Control, Creatinine", "setting": "[2]", "value": "+133%"}, {"measurement": "MIC Escherichia coli (ATCC 25922)", "setting": "Escherichia coli", "value": 32, "unit": "µg/mL"}, {"measurement": "MIC Escherichia coli (GC 4559)", "setting": "Escherichia coli", "value": 32, "unit": "µg/mL"}, {"measurement": "MIC Escherichia coli (GC 4560)", "setting": "Escherichia coli", "value": 2, "unit": "µg/mL"}, {"measurement": "Anatomical Pathology (Day 10), Heart", "setting": "[3]", "value": "+"}, {"measurement": "Anatomical Pathology (Day 10), Kidney", "setting": "[3]", "value": "+++"}, {"measurement": "MIC Coagulase Negative Staphylococcus (GC 4547)", "setting": "Staphylococcus sp.", "value": 2, "unit": "µg/mL"}, {"measurement": "MIC Coagulase Negative Staphylococcus (GC 4548)", "setting": "Staphylococcus sp.", "value": 1, "unit": "µg/mL"}, {"measurement": "MIC Coagulase Negative Staphylococcus (GC 4549)", "setting": "Staphylococcus sp.", "value": 0.5, "unit": "µg/mL"}, {"measurement": "MIC Coagulase Negative Staphylococcus (GC 4551)", "setting": "Staphylococcus sp.", "value": 2, "unit": "µg/mL"}, {"measurement": "MIC Coagulase Negative Staphylococcus (GC 6257)", "setting": "Staphylococcus sp.", "value": 1, "unit": "µg/mL"}, {"measurement": "MIC Staphylococcus aureus (ATCC 29213)", "setting": "Staphylococcus sp.", "value": 2, "unit": "µg/mL"}, {"measurement": "MIC Staphylococcus aureus (GC 1131)", "setting": "Staphylococcus sp.", "value": 4, "unit": "µg/mL"}, {"measurement": "MIC Staphylococcus aureus (GC 3051)", "setting": "Staphylococcus sp.", "value": 2, "unit": "µg/mL"}, {"measurement": "MIC Staphylococcus aureus (GC 3053)", "setting": "Staphylococcus sp.", "value": 2, "unit": "µg/mL"}, {"measurement": "MIC Staphylococcus aureus (GC 4541)", "setting": "Staphylococcus sp.", "value": 2, "unit": "µg/mL"}, {"measurement": "MIC Staphylococcus aureus (GC 4542)", "setting": "Staphylococcus sp.", "value": 2, "unit": "µg/mL"}, {"measurement": "MIC Staphylococcus aureus (GC 4544)", "setting": "Staphylococcus sp.", "value": 2, "unit": "µg/mL"}, {"measurement": "MIC Staphylococcus aureus (GC 4545)", "setting": "Staphylococcus sp.", "value": 2, "unit": "µg/mL"}, {"measurement": "MIC Staphylococcus aureus-SMITH (GC 4543)", "setting": "Staphylococcus sp.", "value": 2, "unit": "µg/mL"}, {"measurement": "MIC Staphylococcus haemolyticus (GC 4546)", "setting": "Staphylococcus sp.", "value": 1, "unit": "µg/mL"}, {"measurement": "MIC Staphylococcus aureus (ATCC 29213)", "setting": "Staphylococcus sp.; strain ATCC 29213", "value": 2, "unit": "µg/mL"}, {"measurement": "MIC Staphylococcus aureus (GC 1131)", "setting": "Staphylococcus sp.; strain GC 1131", "value": 4, "unit": "µg/mL"}, {"measurement": "MIC Staphylococcus aureus (GC 3051)", "setting": "Staphylococcus sp.; strain GC 3051", "value": 2, "unit": "µg/mL"}, {"measurement": "MIC Staphylococcus aureus (GC 3053)", "setting": "Staphylococcus sp.; strain GC 3053", "value": 2, "unit": "µg/mL"}, {"measurement": "MIC Staphylococcus aureus (GC 4541)", "setting": "Staphylococcus sp.; strain GC 4541", "value": 2, "unit": "µg/mL"}, {"measurement": "MIC Staphylococcus aureus (GC 4542)", "setting": "Staphylococcus sp.; strain GC 4542", "value": 2, "unit": "µg/mL"}, {"measurement": "MIC Staphylococcus aureus-SMITH (GC 4543)", "setting": "Staphylococcus sp.; strain GC 4543", "value": 2, "unit": "µg/mL"}, {"measurement": "MIC Staphylococcus aureus (GC 4544)", "setting": "Staphylococcus sp.; strain GC 4544", "value": 2, "unit": "µg/mL"}, {"measurement": "MIC Staphylococcus aureus (GC 4545)", "setting": "Staphylococcus sp.; strain GC 4545", "value": 2, "unit": "µg/mL"}, {"measurement": "MIC Staphylococcus haemolyticus (GC 4546)", "setting": "Staphylococcus sp.; strain GC 4546", "value": 1, "unit": "µg/mL"}, {"measurement": "MIC Coagulase Negative Staphylococcus (GC 4547)", "setting": "Staphylococcus sp.; strain GC 4547", "value": 2, "unit": "µg/mL"}, {"measurement": "MIC Coagulase Negative Staphylococcus (GC 4548)", "setting": "Staphylococcus sp.; strain GC 4548", "value": 1, "unit": "µg/mL"}, {"measurement": "MIC Coagulase Negative Staphylococcus (GC 4549)", "setting": "Staphylococcus sp.; strain GC 4549", "value": 0.5, "unit": "µg/mL"}, {"measurement": "MIC Coagulase Negative Staphylococcus (GC 4551)", "setting": "Staphylococcus sp.; strain GC 4551", "value": 2, "unit": "µg/mL"}, {"measurement": "MIC Coagulase Negative Staphylococcus (GC 6257)", "setting": "Staphylococcus sp.; strain GC 6257", "value": 1, "unit": "µg/mL"}, {"measurement": "MIC Streptococcus agalactiae (GC 4564)", "setting": "Streptococcus sp.", "value": 1, "unit": "µg/mL"}, {"measurement": "MIC Streptococcus pneumoniae (ATCC 6301)", "setting": "Streptococcus sp.", "value": 0.5, "unit": "µg/mL"}, {"measurement": "MIC Streptococcus pneumoniae (GC 1894)", "setting": "Streptococcus sp.", "value": "<0.12", "unit": "µg/mL"}, {"measurement": "MIC Streptococcus pneumoniae (GC 4565)", "setting": "Streptococcus sp.", "value": 1, "unit": "µg/mL"}, {"measurement": "MIC Streptococcus pyogenes (GC 4563)", "setting": "Streptococcus sp.", "value": 1, "unit": "µg/mL"}, {"measurement": "MIC Streptococcus pneumoniae (ATCC 6301)", "setting": "Streptococcus sp.; inoculum 5×10^5 CFU/mL, strain ATCC 6301", "value": 0.5, "unit": "µg/mL"}, {"measurement": "MIC Streptococcus pneumoniae (GC 1894)", "setting": "Streptococcus sp.; inoculum 5×10^5 CFU/mL, strain GC 1894", "value": "<0.12", "unit": "µg/mL"}, {"measurement": "MIC Streptococcus pyogenes (GC 4563)", "setting": "Streptococcus sp.; inoculum 5×10^5 CFU/mL, strain GC 4563", "value": 1, "unit": "µg/mL"}, {"measurement": "MIC Streptococcus agalactiae (GC 4564)", "setting": "Streptococcus sp.; inoculum 5×10^5 CFU/mL, strain GC 4564", "value": 1, "unit": "µg/mL"}, {"measurement": "MIC Streptococcus pneumoniae (GC 4565)", "setting": "Streptococcus sp.; inoculum 5×10^5 CFU/mL, strain GC 4565", "value": 1, "unit": "µg/mL"}, {"measurement": "MIC Enterococcus avium (GC 4558)", "setting": "Enterococcus sp.", "value": 4, "unit": "µg/mL"}, {"measurement": "MIC Enterococcus faecalis (ATCC 29212)", "setting": "Enterococcus sp.", "value": 8, "unit": "µg/mL"}, {"measurement": "MIC Enterococcus faecalis (GC 2242)", "setting": "Enterococcus sp.", "value": 4, "unit": "µg/mL"}, {"measurement": "MIC Enterococcus faecalis (GC 2691)", "setting": "Enterococcus sp.", "value": 8, "unit": "µg/mL"}, {"measurement": "MIC Enterococcus faecalis (GC 3059)", "setting": "Enterococcus sp.", "value": 4, "unit": "µg/mL"}, {"measurement": "MIC Enterococcus faecalis (GC 4552)", "setting": "Enterococcus sp.", "value": 8, "unit": "µg/mL"}, {"measurement": "MIC Enterococcus faecalis (GC 4553)", "setting": "Enterococcus sp.", "value": 4, "unit": "µg/mL"}, {"measurement": "MIC Enterococcus faecalis (GC 4554)", "setting": "Enterococcus sp.", "value": 8, "unit": "µg/mL"}, {"measurement": "MIC Enterococcus faecalis (GC 6189)", "setting": "Enterococcus sp.", "value": 8, "unit": "µg/mL"}, {"measurement": "MIC Enterococcus faecium (GC 2243)", "setting": "Enterococcus sp.", "value": 4, "unit": "µg/mL"}, {"measurement": "MIC Enterococcus faecium (GC 4556)", "setting": "Enterococcus sp.", "value": 4, "unit": "µg/mL"}, {"measurement": "MIC Enterococcus faecium (GC 4557)", "setting": "Enterococcus sp.", "value": 2, "unit": "µg/mL"}, {"measurement": "MIC Enterococcus faecalis (ATCC 29212)", "setting": "Enterococcus sp.; strain ATCC 29212", "value": 8, "unit": "µg/mL"}, {"measurement": "MIC Enterococcus faecium (GC 2243)", "setting": "Enterococcus sp.; strain GC 2243", "value": 4, "unit": "µg/mL"}, {"measurement": "MIC Enterococcus faecalis (GC 4552)", "setting": "Enterococcus sp.; strain GC 4552", "value": 8, "unit": "µg/mL"}, {"measurement": "MIC Enterococcus faecalis (GC 4553)", "setting": "Enterococcus sp.; strain GC 4553", "value": 4, "unit": "µg/mL"}, {"measurement": "MIC Enterococcus faecalis (GC 4554)", "setting": "Enterococcus sp.; strain GC 4554", "value": 8, "unit": "µg/mL"}, {"measurement": "MIC Enterococcus faecium (GC 4556)", "setting": "Enterococcus sp.; strain GC 4556", "value": 4, "unit": "µg/mL"}, {"measurement": "MIC Enterococcus faecium (GC 4557)", "setting": "Enterococcus sp.; strain GC 4557", "value": 2, "unit": "µg/mL"}, {"measurement": "MIC Enterococcus avium (GC 4558)", "setting": "Enterococcus sp.; strain GC 4558", "value": 4, "unit": "µg/mL"}, {"measurement": "MIC Enterococcus faecalis (GC 6189)", "setting": "Enterococcus sp.; strain GC 6189", "value": 8, "unit": "µg/mL"}, {"measurement": "MIC Enterococcus faecalis (GC 2242)", "setting": "Enterococcus sp.; inoculum 5×10^5 CFU/mL, strain GC 2242", "value": 4, "unit": "µg/mL"}, {"measurement": "MIC Enterococcus faecalis (GC 2691)", "setting": "Enterococcus sp.; inoculum 5×10^5 CFU/mL, strain GC 2691", "value": 8, "unit": "µg/mL"}, {"measurement": "MIC Enterococcus faecalis (GC 3059)", "setting": "Enterococcus sp.; inoculum 5×10^5 CFU/mL, strain GC 3059", "value": 4, "unit": "µg/mL"}]}
